Experimental findings from patent US20240238423A9, “TETRAHYDROISOQUINOLINE HETEROBIFUNCTIONAL BCL-XL DEGRADERS” (Treeline Biosciences, Inc., priority 2022, published 2024) are described below.

The target in this assay is T1, Human BCL-XL protein (N-terminal HiBiT tagged BCL-XL in HT1080 cells) (Homo sapiens, UniProt Q07817).
T1 construct: expressed in transfected cells; host or cells: HT-1080 (ATCC CCL-121), stably transduced with lentivirus pLV-UBC-N-HiBiT-BCL-XL-PGK-puro and selected with puromycin
T1 sequence (Q07817 whole entry): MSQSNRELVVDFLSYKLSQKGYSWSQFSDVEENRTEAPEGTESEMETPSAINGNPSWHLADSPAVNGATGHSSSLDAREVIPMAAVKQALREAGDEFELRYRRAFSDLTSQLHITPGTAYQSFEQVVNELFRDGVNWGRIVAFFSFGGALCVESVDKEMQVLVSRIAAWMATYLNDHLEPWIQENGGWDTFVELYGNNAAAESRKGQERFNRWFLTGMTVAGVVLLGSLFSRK
Briefly: HiBiT based degradation assay. Type of assay: cell-based. The settings on record: HT1080 cells expressing HiBiT-BCL-XL; for Ymin (24 h) / Ymin (6 h): BCL-XL degradation normalized with DMSO control; for DC50: BCL-XL degradation. The procedure, abridged:
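This HiBiT degradation assay measured loss of BCL-XL in HT1080 cells that stably express an N-terminal HiBiT-BCL-XL fusion delivered by lentivirus. Cells were added to compound-spotted 384-well plates, and luminescence was read on a PHERAstar FSX reader. Signal was expressed relative to DMSO controls, curves were fitted by four-parameter logistic regression, and for hook-shaped curves the Ymin point served as the bottom plateau when calculating EC50.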
On the technique in general: The HiBiT peptide binds its large partner to form an active luciferase.

Structures are written as SMILES. Read-outs that look alike come from different tables or passages of the source.

With `Cc1c(OCC[C@@H](C)C2CCN(CC(=O)Nc3ccc4c(C5CCC(=O)NC5=O)nn(C)c4c3)CC2)cccc1-c1ccc(N2CCc3cccc(C(=O)Nc4nc5ccccc5s4)c3C2)nc1C(=O)O` (stereo partly drawn) [Compound 167a, 6-[8-(1,3-benzothiazol-2-ylcarbamoyl)-3,4-dihydro-1H-isoquinolin-2-yl]-3-[3-[(3R)-3-[1-[2-[[3-(2,6-dioxo-3-piperidyl)-1-methyl-indazol-6-yl]amino]-2-oxo-ethyl]-4-piperidyl]butoxy]-2-methyl-phenyl]pyridine-2-carboxylic acid], under “24 h”, the “Ymin (24 h)” value is “A (Ymin < 50%)”. Further, the DC50 (24 h, read-out: EC50 (24 h)) was < 100 nM.
Turning to `Cc1c(OCC[C@H](C)C2CCN(CC(=O)Nc3ccc4c(C5CCC(=O)NC5=O)nn(C)c4c3)CC2)cccc1-c1ccc(N2CCc3cccc(C(=O)Nc4nc5ccccc5s4)c3C2)nc1C(=O)O` (stereo partly drawn) [Compound 167b, 6-[8-(1,3-benzothiazol-2-ylcarbamoyl)-3,4-dihydro-1H-isoquinolin-2-yl]-3-[3-[(3S)-3-[1-[2-[[3-(2,6-dioxo-3-piperidyl)-1-methyl-indazol-6-yl]amino]-2-oxo-ethyl]-4-piperidyl]butoxy]-2-methyl-phenyl]pyridine-2-carboxylic acid], the “Ymin (24 h)” value (24 h) is given as “B (50% ≤ Ymin < 70%)”. In addition, the DC50 (24 h, read-out: EC50 (24 h)) is < 100 nM.
With `Cc1c(O[C@H]2CC[C@H](CC(F)(F)CN3CCN(c4cccc5c(C6CCC(=O)NC6=O)nn(C)c45)CC3)CC2)cccc1-c1ccc(N2CCc3cccc(C(=O)Nc4nc5ccccc5s4)c3C2)nc1C(=O)O` (stereo partly drawn) [Compound 168a, 6-(8-(benzo[d]thiazol-2-ylcarbamoyl)-3,4-dihydroisoquinolin-2(1H)-yl)-3-(3-(((1r,4r)-4-(3-(4-(3-(2,6-dioxopiperidin-3-yl)-1-methyl-1H-indazol-7-yl)piperazin-1-yl)-2,2-difluoropropyl)cyclohexyl)oxy)-2-methylphenyl)picolinic acid], the “Ymin (24 h)” value (24 h) was “B (50% ≤ Ymin < 70%)”. Also, the DC50 (24 h, read-out: EC50 (24 h)) was < 100 nM.
With `Cc1c(O[C@@H](C)CCC2CCN(CC(=O)Nc3cccc4c(C5CCC(=O)NC5=O)nn(C)c34)CC2)cccc1-c1ccc(N2CCc3cccc(C(=O)Nc4nc5ccccc5s4)c3C2)nc1C(=O)O` (stereo partly drawn) [Compound 169a, 6-[8-(1,3-benzothiazol-2-ylcarbamoyl)-3,4-dihydro-1H-isoquinolin-2-yl]-3-[3-[(1S)-3-[1-[2-[[3-(2,6-dioxo-3-piperidyl)-1-methyl-indazol-7-yl]amino]-2-oxo-ethyl]-4-piperidyl]-1-methyl-propoxy]-2-methyl-phenyl]pyridine-2-carboxylic acid], the “Ymin (6 h)” value (6 h) is “B (50% ≤ Ymin < 70%)”. In addition, where the note is “24 h”, the “Ymin (24 h)” value was “B (50% ≤ Ymin < 70%)”. For the same compound, the DC50 runs as follows: (6 h, read-out: EC50 (6 h)) 100 to 1000 nM; (24 h, read-out: EC50 (24 h)) < 100 nM.
As for `Cc1c(O[C@H](C)CCC2CCN(CC(=O)Nc3cccc4c(C5CCC(=O)NC5=O)nn(C)c34)CC2)cccc1-c1ccc(N2CCc3cccc(C(=O)Nc4nc5ccccc5s4)c3C2)nc1C(=O)O` (stereo partly drawn) [Compound 169b, 6-[8-(1,3-benzothiazol-2-ylcarbamoyl)-3,4-dihydro-1H-isoquinolin-2-yl]-3-[3-[(1R)-3-[1-[2-[[3-(2,6-dioxo-3-piperidyl)-1-methyl-indazol-7-yl]amino]-2-oxo-ethyl]-4-piperidyl]-1-methyl-propoxy]-2-methyl-phenyl] pyridine-2-carboxylic acid], the “Ymin (6 h)” value (6 h) is “C (Ymin ≥ 70%)”. For the same compound, the “Ymin (24 h)” value (24 h) is recorded as “B (50% ≤ Ymin < 70%)”. In addition, the DC50 runs as follows: (6 h, read-out: EC50 (6 h)) < 100 nM; (24 h, read-out: EC50 (24 h)) < 100 nM.
Turning to `Cc1c(OCC(F)(F)CC2CCN(CC(=O)Nc3cccc4c(C5CCC(=O)NC5=O)nn(C)c34)CC2)cccc1-c1ccc(N2CCc3cccc(C(=O)Nc4nc5ccccc5s4)c3C2)nc1C(=O)O` (stereo not drawn) [Compound 170, 6-[8-(1,3-benzothiazol-2-ylcarbamoyl)-3,4-dihydro-1H-isoquinolin-2-yl]-3-[3-[3-[1-[2-[[3-(2,6-dioxo-3-piperidyl)-1-methyl-indazol-7-yl]amino]-2-oxo-ethyl]-4-piperidyl]-2,2-difluoro-propoxy]-2-methyl-phenyl]pyridine-2-carboxylic acid], the “Ymin (24 h)” value (24 h) is “B (50% ≤ Ymin < 70%)”. Moreover, the DC50 (24 h, read-out: EC50 (24 h)) was in the range of 100 to 1000 nM.
On the same counts, the results for `Cc1c(O[C@H]2CC[C@H](CC(F)(F)C(=O)N3CCN(c4cccc5c(C6CCC(=O)NC6=O)nn(C)c45)CC3)CC2)cccc1-c1ccc(N2CCc3cccc(C(=O)Nc4nc5ccccc5s4)c3C2)nc1C(=O)O` (stereo partly drawn) [Compound 171a, 6-(8-(benzo[d]thiazol-2-ylcarbamoyl)-3,4-dihydroisoquinolin-2(1H)-yl)-3-(3-(((1r,4r)-4-(3-(4-(3-(2,6-dioxopiperidin-3-yl)-1-methyl-1H-indazol-7-yl)piperazin-1-yl)-2,2-difluoro-3-oxopropyl)cyclohexyl)oxy)-2-methylphenyl)picolinic acid] are “B (50% ≤ Ymin < 70%)” and 100 to 1000 nM.
On to `Cc1c(OCCCC2CCN(CCCOc3ccc4c(C5CCC(=O)NC5=O)nn(C)c4c3)CC2)cccc1-c1ccc(N2CCc3cccc(C(=O)Nc4nc5ccccc5s4)c3C2)nc1C(=O)O` (stereo not drawn) [Compound 172, 6-(8-(benzo[d]thiazol-2-ylcarbamoyl)-3,4-dihydroisoquinolin-2(1H)-yl)-3-(3-(3-(1-(3-((3-(2,6-dioxopiperidin-3-yl)-1-methyl-1H-indazol-6-yl)oxy)propyl)piperidin-4-yl)propoxy)-2-methylphenyl)picolinic acid], for which the “Ymin (6 h)” value (6 h) was “C (Ymin ≥ 70%)”. In addition, under “24 h”, the “Ymin (24 h)” value is on record as “A (Ymin < 50%)”. For the same compound, the DC50 reads like this: (6 h, read-out: EC50 (6 h)) 100 to 1000 nM; (24 h, read-out: EC50 (24 h)) < 100 nM.
Regarding `Cc1c(OCC[C@H](C)C2CCN(CC(=O)Nc3cccc4c(C5CCC(=O)NC5=O)nn(C)c34)CC2)cccc1-c1ccc(N2CCc3cccc(C(=O)Nc4nc5ccccc5s4)c3C2)nc1C(=O)O` (stereo partly drawn) [Compound 173a, 6-(8-(benzo[d]thiazol-2-ylcarbamoyl)-3,4-dihydroisoquinolin-2(1H)-yl)-3-(3-((3S)-3-(1-(2-((3-(2,6-dioxopiperidin-3-yl)-1-methyl-1H-indazol-7-yl)amino)-2-oxoethyl)piperidin-4-yl)butoxy)-2-methylphenyl)picolinic acid], the “Ymin (24 h)” value (24 h) is “B (50% ≤ Ymin < 70%)”. The DC50 (24 h, read-out: EC50 (24 h)) is < 100 nM.
On the same counts, the results for `Cc1c(OCC[C@@H](C)C2CCN(CC(=O)Nc3cccc4c(C5CCC(=O)NC5=O)nn(C)c34)CC2)cccc1-c1ccc(N2CCc3cccc(C(=O)Nc4nc5ccccc5s4)c3C2)nc1C(=O)O` (stereo partly drawn) [Compound 173b, 6-[8-(1,3-benzothiazol-2-ylcarbamoyl)-3,4-dihydro-1H-isoquinolin-2-yl]-3-[3-[(3R)-3-[1-[2-[[3-(2,6-dioxo-3-piperidyl)-1-methyl-indazol-7-yl]amino]-2-oxo-ethyl]-4-piperidyl]butoxy]-2-methyl-phenyl]pyridine-2-carboxylic acid] are “B (50% ≤ Ymin < 70%)” and 100 to 1000 nM.
As for `Cc1c(OCCO[C@H]2C[C@H]3CC[C@@H](C2)N3CC(=O)Nc2ccc3c(C4CCC(=O)NC4=O)nn(C)c3c2)cccc1-c1ccc(N2CCc3cccc(C(=O)Nc4nc5ccccc5s4)c3C2)nc1C(=O)O` (stereo partly drawn) [Compound 174a, 6-(8-(benzo[d]thiazol-2-ylcarbamoyl)-3,4-dihydroisoquinolin-2(1H)-yl)-3-(3-(2-(((1R,3r,5S)-8-(2-((3-(2,6-dioxopiperidin-3-yl)-1-methyl-1H-indazol-6-yl)amino)-2-oxoethyl)-8-azabicyclo[3.2.1]octan-3-yl)oxy)ethoxy)-2-methylphenyl)picolinic acid], the “Ymin (24 h)” value (24 h) is on record as “A (Ymin < 50%)”. Moreover, the DC50 (24 h, read-out: EC50 (24 h)) is < 100 nM.
Turning to `Cc1c(OCCO[C@@H]2C[C@H]3CC[C@@H](C2)N3CC(=O)Nc2ccc3c(C4CCC(=O)NC4=O)nn(C)c3c2)cccc1-c1ccc(N2CCc3cccc(C(=O)Nc4nc5ccccc5s4)c3C2)nc1C(=O)O` (stereo partly drawn) [Compound 174b, 6-(8-(benzo[d]thiazol-2-ylcarbamoyl)-3,4-dihydroisoquinolin-2(1H)-yl)-3-(3-(2-(((1R,3s,5S)-8-(2-((3-(2,6-dioxopiperidin-3-yl)-1-methyl-1H-indazol-6-yl)amino)-2-oxoethyl)-8-azabicyclo[3.2.1]octan-3-yl)oxy)ethoxy)-2-methylphenyl)picolinic acid], where the note is “6 h”, the “Ymin (6 h)” value is “C (Ymin ≥ 70%)”. The “Ymin (24 h)” value (24 h) was “B (50% ≤ Ymin < 70%)”. The DC50 was 100 to 1000 nM (6 h, read-out: EC50 (6 h)) and < 100 nM (24 h, read-out: EC50 (24 h)).
As for `Cc1c(Oc2ccc(CCCCN3CCN(c4cccc5c(C6CCC(=O)NC6=O)nn(C)c45)CC3)cc2)cccc1-c1ccc(N2CCc3cccc(C(=O)Nc4nc5ccccc5s4)c3C2)nc1C(=O)O` (stereo not drawn) [Compound 175, 6-(8-(benzo[d]thiazol-2-ylcarbamoyl)-3,4-dihydroisoquinolin-2(1H)-yl)-3-(3-(4-(4-(4-(3-(2,6-dioxopiperidin-3-yl)-1-methyl-1H-indazol-7-yl)piperazin-1-yl)butyl)phenoxy)-2-methylphenyl)picolinic acid], the “Ymin (24 h)” value (24 h) is on record as “B (50% ≤ Ymin < 70%)”. Moreover, the DC50 (24 h, read-out: EC50 (24 h)) is < 100 nM.
In the case of `Cc1c(O[C@H]2CC[C@H](CC(=O)N3CCN(c4ccc5c(C6CCC(=O)NC6=O)nn(C)c5c4)CC3)CC2)cccc1-c1ccc(N2CCc3cccc(C(=O)Nc4nc5ccccc5s4)c3C2)nc1C(=O)O` (stereo partly drawn) [Compound 176a, 6-(8-(benzo[d]thiazol-2-ylcarbamoyl)-3,4-dihydroisoquinolin-2(1H)-yl)-3-(3-(((1r,4r)-4-(2-(4-(3-(2,6-dioxopiperidin-3-yl)-1-methyl-1H-indazol-6-yl)piperazin-1-yl)-2-oxoethyl)cyclohexyl)oxy)-2-methylphenyl)picolinic acid], the “Ymin (24 h)” value (24 h) was “B (50% ≤ Ymin < 70%)”. The DC50 (24 h, read-out: EC50 (24 h)) was < 100 nM.
